Source: US20150258118A1, “CO-MICRONISATION PRODUCT COMPRISING A SELECTIVE PROGESTERONE-RECEPTOR MODULATOR” (LABORATOIRE HRA-PHARMA, priority 2012, published 2015)
Values after ≈ are worked out from the molar mass of the structure shown.

Columns and labels:
[1] = chronic administration, 5 mg or 10 mg per day; cited from earlier work
[2] = UPA solubility as a function of pH; type: physicochemical
[3] = In vitro dissolution of UPA comicronizates (gelatin capsules, paddle device, Eur. Pharmacopoeia §2.9.3); type: physicochemical; settings: 30 mg UPA capsule, 900 ml gastric pH buffer, 0.1% SDS, 37°C, 50 rpm, mean of 3
Method: The co-micronization product has improved active ingredient in vitro dissolution properties. In certain embodiments, the co-micronization product according to the invention is characterized in that at least 55% of the active ingredient that it contains is released within 45 minutes when said co-micronization product is subjected to an in vitro dissolution test, preferably according to the European Pharmacopoeia §2.9.3. The in vitro dissolution test can be carried out using any commercially available device. Example 1 hereinafter presents implementing conditions for determining the in vitro dissolution rate of a comicronizate according to the invention. Briefly, an amount of comicronizate representing 30 mg of active ingredient is placed in a gelatin capsule. This capsule is then placed in 900 ml of a medium buffered at gastric pH, comprising 0.1% of SDS, at 37±0.5° C., and subjected to stirring at 50 revolutions per minute (rpm) (speed of rotation of the paddles of the dissolution device). The dissolution of the active ingredient in the medium can be monitored by spectrophotometry, for example at the maximum wavelength of absorbance. For the purposes of the invention, a gastric pH is typically a pH of 1 to 3.
For each comicronizate obtained, gelatin capsules containing an amount of comicronizate corresponding to 30 mg of UPA per capsule were prepared. The studies of the in vitro dissolution of UPA as comicronizate were carried out using these capsules according to the method described in the European Pharmacopoeia in §2.9.3, using a paddle dissolution device.
For each comicronizate, a capsule containing said comicronizate was placed in a bowl of the dissolution device containing 900 ml of a dissolution medium. The dissolution medium is an aqueous solution buffered at gastric pH and comprising 0.1% of SDS. The conditions for carrying out the in vitro dissolutions are the following: • Paddle rotation speed: 50 revolutions per minute (rpm) • Temperature: 37° C.±0.5° C.
The dissolution of the UPA was monitored by spectrophotometry.
By way of control experiment, a gelatin capsule containing 30 mg of ulipristal acetate micronized alone (i.e. UPA micronized in the absence of any co-micronization excipient) was used. For each comicronizate, the dissolution experiment was reproduced 3 times.
These various active ingredient matrices were subjected to an in vitro dissolution test as described above in the “Materials and Methods” section.

[4] = single dose of 30 mg, within 120 hours following unprotected or poorly protected intercourse; cited from earlier work

For `CC(=O)O[C@]1(C(C)=O)CCC2C3CCC4=CC(=O)CCC4=C3[C@@H](c3ccc(N(C)C)cc3)C[C@@]21C` (stereo partly drawn) [UPA, 17α-acetoxy-11β-(4-N,N-dimethylaminophenyl)-19-norpregna-4,9-diene-3,20-dione], the “Symptoms associated with uterine fibromas” value [1] is given as “significantly reduce the symptoms associated with uterine fibromas”, the solubility ([2]; pH 1.2, simulated gastric fluid) is given as 22700 µg/mL (≈ 47700 µM) and the solubility ([2]; pH 4.5, aqueous buffer) is given as 39 µg/mL (≈ 82 µM). The solubility ([2]; pH 6.8, aqueous buffer) was 5 µg/mL (≈ 10.5 µM), the “Percentage of UPA released relative to the initial amount of UPA per gel capsule” value ([3]; time 0 min) was 0.00% and the “Percentage of UPA released relative to the initial amount of UPA per gel capsule” value ([3]; time 1 min) was 0.00%. For the same compound, the “Percentage of UPA released relative to the initial amount of UPA per gel capsule” value ([3]; time 5 min) was 5.50%, the “Percentage of UPA released relative to the initial amount of UPA per gel capsule” value ([3]; time 7.5 min) was 15.00% and the “Percentage of UPA released relative to the initial amount of UPA per gel capsule” value ([3]; time 10 min) was 22.30%. For the same compound, the “Percentage of UPA released relative to the initial amount of UPA per gel capsule” value ([3]; time 15 min) was 30.00%, the “Percentage of UPA released relative to the initial amount of UPA per gel capsule” value ([3]; time 20 min) was 34.30% and the “Percentage of UPA released relative to the initial amount of UPA per gel capsule” value ([3]; time 30 min, listed as Micronized UPA) was 39.50%. The “Percentage of UPA released relative to the initial amount of UPA per gel capsule” value ([3]; time 30 min, listed as micronized ulipristal acetate) was “approximately 39%”, the “Percentage of UPA released relative to the initial amount of UPA per gel capsule” value ([3]; time 45 min) was 47.50% and the “Percentage of UPA released relative to the initial amount of UPA per gel capsule” value ([3]; time 60 min) was 53.80%. For the same compound, the “Prevention of unwanted pregnancy” value [4] was “makes it possible to prevent an unwanted pregnancy”.
